Data: US8513275B2 (Salix Pharmaceuticals, Ltd, priority 2010, dated 2013)
“Also recorded” adds a separate entry of the source. Read-outs that look alike come from different tables or passages of the source. Marks after values point to notes of the source that are not given here.

Legend:
[1] = VS w/ACN
Procedure: Subsequent characterization of cocrystal 2 was conducted quickly after isolating vapor stressed samples.
The 20-mL vial was capped and left at ambient conditions for vapor stress.

[2] = 1000 psi, 1 min.
[3] = water slurry, 5 minutes, 3 hours and 7 hours
Procedure: In order to be able to measure the aqueous solubility (equilibrium or kinetic) of a cocrystal, it should remain intact upon exposure to aqueous conditions for some duration. If it dissociates or changes forms quickly upon contact with water, intrinsic dissolution may be introduced as an alternative to solubility, in which dissolution of a pellet of the cocrystal is measured; however, the cocrystal must not change form upon compression.

[4] = Relative humidity stressing at ambient temperature, XRPD of stressed solid; format: physicochemical
[5] = Properties of the Rifaximin:piperazine cocrystals (summary, Table 12); conditions: summary column of Table 12
[6] = Dynamic vapor sorption (moisture sorption, moisture balance) with post-sorption XRPD; format: physicochemical; conditions: for post-moisture sorption (post-MB / post-DVS) XRPD result: solid after DVS cycle
Procedure: Automated vapor sorption (VS) data were collected on a VTI SGA-100 Vapor Sorption Analyzer. NaCl and PVP were used as calibration standards. Samples were not dried prior to analysis. […] The equilibrium criterion used for analysis was less than 0.0100% weight change in 5 minutes with a maximum equilibration time of 3 hours. Data were not corrected for the initial moisture content of the samples.
Automated dynamic vapor sorption (DVS) data were collected on a VTI SGA-100 Vapor Sorption Analyzer. NaCl and PVP were used as calibration standards. Samples were not dried prior to analysis. […] The equilibrium criterion used for analysis was less than 0.0100% weight change in 5 minutes with a maximum equilibration time of 3 hours.

C1CNCCN1.COC1C=COC2(C)Oc3c(C)c(O)c4c(O)c(c5c(nc6cc(C)ccn65)c4c3C2=O)NC(=O)C(C)=CC=CC(C)C(O)C(C)C(O)C(C)C(OC(C)=O)C1C.COC1C=COC2(C)Oc3c(C)c(O)c4c(O)c(c5c(nc6cc(C)ccn65)c4c3C2=O)NC(=O)C(C)=CC=CC(C)C(O)C(C)C(O)C(C)C(OC(C)=O)C1C (stereo not shown) [cocrystal 1, rifaximin:piperazine cocrystal 1]
XRPD result after vapor stress with ACN ([1]; 7 days): conversion to cocrystal 2
XRPD result after vapor stress with ACN ([1]; 7 days, listed as Cocrystal 1): Cocrystal 2 resulted by XRPD
XRPD result after vapor stress with ACN ([1]; 7 days, listed as Rifaximin:Piperazine Cocrystal 1): cocrystal 2^c
XRPD result after vapor stress with ACN ([1]; 24 days, sample stood capped at ambient approx. 5-6 hours before XRPD): gave cocrystal 1 by XRPD
XRPD result after vapor stress with ACN ([1]; 24 days, sample stood capped at ambient approx. 5-6 hours before XRPD, listed as Rifaximin:Piperazine Cocrystal 1): cocrystal 1^b
XRPD result after compression [2]: additional peaks at approximately 5 and 17°2θ were observed by XRPD, and the material was low crystalline
XRPD result after slurrying in water ([3]; listed as Rifaximin:Piperazine Cocrystal 1): API, Form β-1
XRPD result after slurrying in water ([3]; listed as Rifaximin:piperazine cocrystal 1): conversion to Rifaximin Form β-1
XRPD result after RH stress ([4]; ~75% RH, 1 week): broad peaks, similar to cocrystal 1+ peak at ˜5°2θ
XRPD result after RH stress ([4]; ~75% RH, 1 week, listed as Cocrystal 1): broad peaks, similar to cocrystal 1 with an additional peak at approximately 5°2θ
XRPD result after RH stress ([4]; ~75% RH, 2 weeks): broad peaks, similar to cocrystal 1+ peak at ˜5°2θ
XRPD result after RH stress ([4]; ~75% RH, 2 weeks, listed as Cocrystal 1): broad peaks, similar to cocrystal 1 with an additional peak at approximately 5°2θ
XRPD result after RH stress ([4]; ~75% RH, 3 days): broad peaks, similar to cocrystal 1+ peak at ˜5°2θ
XRPD result after RH stress ([4]; ~75% RH, 3 days, listed as Cocrystal 1): broad peaks, similar to cocrystal 1 with an additional peak at approximately 5°2θ
XRPD result after RH stress ([4]; ~97% RH, 1 week, listed as Cocrystal 1): Conversion to Rifaximin Form β-1
XRPD result after RH stress ([4]; ~97% RH, 1 week, listed as Rifaximin:Piperazine Cocrystal 1): API, Form β-1
XRPD result after RH stress ([4]; ~97% RH, 3 days, listed as Cocrystal 1): conversion to Rifaximin Form β-1
XRPD result after RH stress ([4]; ~97% RH, 3 days, listed as Rifaximin:Piperazine Cocrystal 1): API, Form β-1
Properties (hygroscopicity, stability) [5]: likely falls apart upon heating; also recorded: hygroscopic
hygroscopicity by DVS [6]: quite hygroscopic
weight loss from 95 to 5% RH ([6]; desorption 95-5% RH, listed as sample 4): 11.47% weight loss from 95-5% RH
weight loss upon equilibration at 5% RH ([6]; initial equilibration at 5% RH): 3.54% weight loss at 5% RH
post-moisture sorption (post-MB / post-DVS) XRPD result [6]: broad peaks, similar to cocrystal 1 with additional peaks at approximately 5 and 17°2θ; also recorded: broad peaks, similar to cocrystal 1 plus peaks at approximately 5 and 17°2θ
post-moisture sorption (post-MB / post-DVS) XRPD result ([6]; listed as Cocrystal 1): conversion to a material similar to cocrystal 1 plus two additional peaks
weight gain from 5 to 95% RH ([6]; sorption 5-95% RH, listed as sample 4): 10.78% weight gain from 5-95% RH
